# From patent US4588587A, “Method of treatment to inhibit metastasis” (Pennsylvania Hospital, priority 1983, dated 1986)
# Tested on: T241 sarcoma cells
# Assay: Lung and mediastinal tumor colonization after intravenous injection of T241 sarcoma cells
# Type: in vivo, mice
# Description: Sarcoma T241 (12), a dimethylbenzanthracene-induced tumor originally derived from a C57BL/6 mouse, was maintained as ascitic tumor in syngeneic C57BL/6 mice or B6AF1 compatible hybrids (Jackson Laboratory, Bar Harbor, Me.). The capacity of the cells of this tumor to induce platelet aggregation and coagulation was assayed in a conventional manner. […] The tumor cells, however, did display a moderate procoagulant activity as reflected by a shortened recalcified clotting time. The addition of 10^6 T241 cells to syngeneic citrated plasma reduced the clotting time to between 1/3 and 1/2 control levels. Another known property of these cells is the capacity to degrade type IV collagen.
# Lung tumor colonies were induced by the intravenous injection of T241 sarcoma cells. One week-old ascitic tumor cells were separated by centrifugation (100 g for 10 min) at 4° C., washed twice with Hanks' solution and suspended in the same medium (125,000-250,000 cells per ml). The suspension contained monodispersed cells of high viability (95%). Two tenths of one ml of the suspension containing 25,000 or 50,000 cells were injected intravenously into male or female C57BL/6 mice (about 25 g), and into B6AF1 mice (25-30 g), respectively, the animals housed under identical conditions of temperature, photoperiodicity, and feeding, were killed 20 days later and the number of metastases counted with a Bausch & Lomb dissecting microscope.
# Two tenths of one ml of extract or semipurified fractions (100-400 ug of protein) were injected intravenously through the tail vein two hours before and two and four hours after receiving the tumor cell inoculation. Controls were similarly injected, but with 20 mM Hepes, 10 mM CaCl2, pH 7.8 aqueous solution. Additional controls were treated with either one intravenous injection of 15 units of heparin (Elkins-Sinn, Cherry Hill, N.J.) or 2 units of Bothrops atrox venom (Atroxin, Sigma, St. Louis, Mo.) in 0.2 ml of saline given 1 hour before tumor inoculation.
# [1] = C57BL/6J mice, T241 cells i.v., killed 20 days later
substance,measurement,setting,value
heparin,"Percentage of Mice with Tumors, Lung",[1],100 Percentage
same,"Percentage of Mice with Tumors, Mediastinal",[1],80 Percentage
same,"Lung Tumors per Mouse, Median","C57BL/6J mice, excluding mice without lung tumors",5
same,Diameter of Lung Tumors,"C57BL/6J mice, mean and S.E.M., excluding mice without lung tumors",2.2 ± 0.1 mm
same,antimetastatic effect on lung and mediastinal tumors (in words),T241 sarcoma cells i.v. in mice,reduced only slightly
same,antimetastatic effect at much higher doses given more frequently,compared with the extract,could not be reproduced
